Source: ChEMBL document CHEMBL1144455, “A small molecule-kinase interaction map for clinical kinase inhibitors” (Nat Biotechnol, 2005)

Tests used:
[1] = target: T1, Phosphorylase b kinase gamma catalytic chain, liver/testis isoform (Homo sapiens, UniProt P15735)
T1 sequence (P15735 whole entry): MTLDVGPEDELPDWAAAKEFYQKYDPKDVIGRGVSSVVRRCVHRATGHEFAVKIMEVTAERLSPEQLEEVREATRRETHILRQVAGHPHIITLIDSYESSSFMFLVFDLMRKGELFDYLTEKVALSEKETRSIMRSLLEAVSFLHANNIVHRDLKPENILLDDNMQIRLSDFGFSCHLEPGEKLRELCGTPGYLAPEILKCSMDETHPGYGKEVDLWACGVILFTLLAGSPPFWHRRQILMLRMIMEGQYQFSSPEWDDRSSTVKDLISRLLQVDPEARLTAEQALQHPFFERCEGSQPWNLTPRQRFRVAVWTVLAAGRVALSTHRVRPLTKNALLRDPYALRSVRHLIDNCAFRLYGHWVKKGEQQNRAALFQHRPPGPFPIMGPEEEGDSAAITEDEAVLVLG

[2] = target: Calcium/calmodulin-dependent protein kinase type II subunit beta (Homo sapiens, UniProt Q13554)
Ephrin type-A receptor 8 = target: T2, Ephrin type-A receptor 8 (Homo sapiens, UniProt P29322)
T2 sequence (P29322 whole entry): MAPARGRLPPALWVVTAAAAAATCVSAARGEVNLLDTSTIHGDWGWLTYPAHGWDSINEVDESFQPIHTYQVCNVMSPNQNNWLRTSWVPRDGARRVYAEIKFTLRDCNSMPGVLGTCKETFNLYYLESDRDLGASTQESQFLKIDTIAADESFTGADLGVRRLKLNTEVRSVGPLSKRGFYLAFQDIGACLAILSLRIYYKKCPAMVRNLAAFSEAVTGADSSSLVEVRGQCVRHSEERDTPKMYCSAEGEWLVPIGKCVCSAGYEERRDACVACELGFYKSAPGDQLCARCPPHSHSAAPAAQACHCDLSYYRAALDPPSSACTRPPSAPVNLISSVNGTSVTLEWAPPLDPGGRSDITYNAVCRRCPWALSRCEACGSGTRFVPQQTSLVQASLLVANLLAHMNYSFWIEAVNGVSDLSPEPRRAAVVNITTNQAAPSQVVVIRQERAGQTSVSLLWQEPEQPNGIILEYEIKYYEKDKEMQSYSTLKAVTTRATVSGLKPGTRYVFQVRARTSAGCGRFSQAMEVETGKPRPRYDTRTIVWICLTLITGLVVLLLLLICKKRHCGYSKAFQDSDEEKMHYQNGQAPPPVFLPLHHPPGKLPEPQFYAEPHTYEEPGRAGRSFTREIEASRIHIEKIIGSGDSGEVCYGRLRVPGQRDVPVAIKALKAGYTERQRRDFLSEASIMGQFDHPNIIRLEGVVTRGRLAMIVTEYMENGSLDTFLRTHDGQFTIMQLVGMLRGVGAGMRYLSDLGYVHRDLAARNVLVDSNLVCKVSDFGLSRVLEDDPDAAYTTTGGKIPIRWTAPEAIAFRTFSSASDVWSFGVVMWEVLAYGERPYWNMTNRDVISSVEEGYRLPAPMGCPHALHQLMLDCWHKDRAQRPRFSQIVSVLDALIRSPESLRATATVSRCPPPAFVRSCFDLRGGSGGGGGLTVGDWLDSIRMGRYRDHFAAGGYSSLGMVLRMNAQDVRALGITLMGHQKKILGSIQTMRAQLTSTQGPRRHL

[3] = target: Serine/threonine-protein kinase pim-2 (Homo sapiens, UniProt Q9P1W9)
[4] = target: Tyrosine-protein kinase JAK2 (Homo sapiens, UniProt O60674)
Insulin receptor = Insulin receptor (Homo sapiens, UniProt P06213)
[5] = target: T3, Dual specificity protein kinase TTK (Homo sapiens, UniProt P33981)
T3 sequence (P33981 whole entry): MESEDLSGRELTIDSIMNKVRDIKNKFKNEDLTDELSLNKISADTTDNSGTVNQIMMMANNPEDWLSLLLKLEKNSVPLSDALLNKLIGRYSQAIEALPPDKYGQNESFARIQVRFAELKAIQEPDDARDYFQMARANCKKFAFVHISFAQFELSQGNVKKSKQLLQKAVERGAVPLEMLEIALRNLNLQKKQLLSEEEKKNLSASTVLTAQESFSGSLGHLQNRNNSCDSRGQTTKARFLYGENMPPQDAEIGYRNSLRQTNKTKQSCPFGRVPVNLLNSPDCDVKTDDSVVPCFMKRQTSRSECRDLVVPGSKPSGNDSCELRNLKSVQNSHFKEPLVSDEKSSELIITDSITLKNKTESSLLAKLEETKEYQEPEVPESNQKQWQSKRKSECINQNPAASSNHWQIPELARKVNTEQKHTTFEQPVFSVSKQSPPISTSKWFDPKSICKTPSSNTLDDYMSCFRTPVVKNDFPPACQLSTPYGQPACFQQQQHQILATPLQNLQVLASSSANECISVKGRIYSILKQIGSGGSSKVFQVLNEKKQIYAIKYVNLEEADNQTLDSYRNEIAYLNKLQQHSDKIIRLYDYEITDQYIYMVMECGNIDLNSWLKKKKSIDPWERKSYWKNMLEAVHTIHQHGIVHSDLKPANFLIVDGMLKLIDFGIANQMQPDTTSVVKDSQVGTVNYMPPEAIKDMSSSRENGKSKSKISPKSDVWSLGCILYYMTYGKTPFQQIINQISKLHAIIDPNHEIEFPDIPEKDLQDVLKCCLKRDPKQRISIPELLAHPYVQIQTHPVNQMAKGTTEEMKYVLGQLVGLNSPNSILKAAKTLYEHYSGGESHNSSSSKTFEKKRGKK

Measured: Kd

Calcium/calmodulin-dependent protein kinase type II subunit beta, sequence (Q13554 whole entry): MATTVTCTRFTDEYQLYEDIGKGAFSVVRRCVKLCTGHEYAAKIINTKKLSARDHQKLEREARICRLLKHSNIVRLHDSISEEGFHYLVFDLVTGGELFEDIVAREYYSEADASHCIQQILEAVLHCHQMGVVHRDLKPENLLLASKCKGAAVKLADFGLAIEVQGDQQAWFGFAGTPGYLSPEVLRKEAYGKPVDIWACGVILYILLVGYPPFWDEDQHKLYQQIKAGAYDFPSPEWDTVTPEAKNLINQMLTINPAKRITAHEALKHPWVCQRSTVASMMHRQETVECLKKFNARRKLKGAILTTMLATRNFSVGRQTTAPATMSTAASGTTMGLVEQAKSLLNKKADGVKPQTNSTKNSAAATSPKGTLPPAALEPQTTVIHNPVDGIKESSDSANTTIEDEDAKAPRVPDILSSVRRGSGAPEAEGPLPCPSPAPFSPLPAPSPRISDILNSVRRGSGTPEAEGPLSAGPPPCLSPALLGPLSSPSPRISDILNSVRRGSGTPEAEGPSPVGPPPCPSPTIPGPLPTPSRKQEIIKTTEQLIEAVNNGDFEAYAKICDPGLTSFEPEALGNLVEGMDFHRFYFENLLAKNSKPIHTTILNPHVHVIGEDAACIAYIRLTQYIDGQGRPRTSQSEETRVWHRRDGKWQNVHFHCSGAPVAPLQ
Serine/threonine-protein kinase pim-2, sequence (Q9P1W9 whole entry): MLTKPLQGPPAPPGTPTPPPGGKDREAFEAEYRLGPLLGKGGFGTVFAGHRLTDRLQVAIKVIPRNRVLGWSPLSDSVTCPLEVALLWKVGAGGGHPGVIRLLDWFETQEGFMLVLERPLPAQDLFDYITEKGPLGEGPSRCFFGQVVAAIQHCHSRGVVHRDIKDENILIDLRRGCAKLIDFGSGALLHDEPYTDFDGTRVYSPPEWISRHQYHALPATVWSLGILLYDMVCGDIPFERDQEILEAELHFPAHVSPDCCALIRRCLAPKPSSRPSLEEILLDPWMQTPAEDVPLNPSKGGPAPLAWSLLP
Tyrosine-protein kinase JAK2, sequence (O60674 whole entry): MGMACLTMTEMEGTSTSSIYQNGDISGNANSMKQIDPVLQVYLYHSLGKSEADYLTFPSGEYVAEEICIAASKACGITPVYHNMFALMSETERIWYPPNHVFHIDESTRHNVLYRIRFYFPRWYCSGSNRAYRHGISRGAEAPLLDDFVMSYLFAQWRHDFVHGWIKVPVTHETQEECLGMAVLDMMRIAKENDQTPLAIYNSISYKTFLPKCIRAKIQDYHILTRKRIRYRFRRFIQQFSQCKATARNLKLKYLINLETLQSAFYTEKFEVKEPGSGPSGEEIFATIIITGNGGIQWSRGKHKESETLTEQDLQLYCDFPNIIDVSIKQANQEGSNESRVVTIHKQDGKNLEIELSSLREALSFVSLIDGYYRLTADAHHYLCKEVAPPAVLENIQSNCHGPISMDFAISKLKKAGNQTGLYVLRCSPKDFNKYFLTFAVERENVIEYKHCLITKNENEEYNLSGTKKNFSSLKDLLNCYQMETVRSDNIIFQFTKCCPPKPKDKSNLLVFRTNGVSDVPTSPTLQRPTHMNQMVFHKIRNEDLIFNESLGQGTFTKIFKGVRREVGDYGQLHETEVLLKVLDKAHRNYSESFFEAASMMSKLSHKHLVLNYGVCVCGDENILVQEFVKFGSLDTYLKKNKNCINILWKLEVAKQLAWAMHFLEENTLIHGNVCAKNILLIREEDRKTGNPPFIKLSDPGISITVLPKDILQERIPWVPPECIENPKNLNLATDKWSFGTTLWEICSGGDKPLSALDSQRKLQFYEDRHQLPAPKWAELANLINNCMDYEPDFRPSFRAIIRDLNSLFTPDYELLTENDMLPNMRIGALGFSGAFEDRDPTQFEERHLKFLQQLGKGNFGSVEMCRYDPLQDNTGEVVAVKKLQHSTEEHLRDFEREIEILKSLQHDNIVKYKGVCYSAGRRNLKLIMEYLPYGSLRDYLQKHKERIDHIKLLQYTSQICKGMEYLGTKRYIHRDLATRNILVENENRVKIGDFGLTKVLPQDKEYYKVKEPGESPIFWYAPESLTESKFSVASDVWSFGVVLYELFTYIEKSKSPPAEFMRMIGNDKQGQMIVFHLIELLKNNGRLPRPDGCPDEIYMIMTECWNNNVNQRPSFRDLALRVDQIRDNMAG
Insulin receptor, sequence (P06213 28-758 limits assumed): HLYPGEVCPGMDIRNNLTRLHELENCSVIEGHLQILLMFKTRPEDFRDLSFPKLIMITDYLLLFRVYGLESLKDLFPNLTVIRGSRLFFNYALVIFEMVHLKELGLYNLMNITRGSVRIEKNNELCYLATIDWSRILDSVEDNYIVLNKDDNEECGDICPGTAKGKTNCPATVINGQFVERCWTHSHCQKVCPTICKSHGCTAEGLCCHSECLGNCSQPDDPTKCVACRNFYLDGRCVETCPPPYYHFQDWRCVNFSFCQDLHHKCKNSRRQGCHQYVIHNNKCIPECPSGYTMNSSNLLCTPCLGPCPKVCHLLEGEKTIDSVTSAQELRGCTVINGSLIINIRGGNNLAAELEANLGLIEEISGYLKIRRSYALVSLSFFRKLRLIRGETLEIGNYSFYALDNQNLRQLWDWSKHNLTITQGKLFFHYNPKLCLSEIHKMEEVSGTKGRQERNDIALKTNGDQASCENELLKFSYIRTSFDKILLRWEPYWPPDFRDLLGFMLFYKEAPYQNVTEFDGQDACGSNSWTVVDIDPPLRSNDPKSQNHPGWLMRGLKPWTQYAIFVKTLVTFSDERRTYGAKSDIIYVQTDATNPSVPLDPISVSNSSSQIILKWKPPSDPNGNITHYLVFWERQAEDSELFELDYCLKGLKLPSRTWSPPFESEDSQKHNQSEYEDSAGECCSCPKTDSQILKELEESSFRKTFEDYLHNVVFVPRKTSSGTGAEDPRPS
Insulin receptor, sequence (P06213 763-1382 limits assumed): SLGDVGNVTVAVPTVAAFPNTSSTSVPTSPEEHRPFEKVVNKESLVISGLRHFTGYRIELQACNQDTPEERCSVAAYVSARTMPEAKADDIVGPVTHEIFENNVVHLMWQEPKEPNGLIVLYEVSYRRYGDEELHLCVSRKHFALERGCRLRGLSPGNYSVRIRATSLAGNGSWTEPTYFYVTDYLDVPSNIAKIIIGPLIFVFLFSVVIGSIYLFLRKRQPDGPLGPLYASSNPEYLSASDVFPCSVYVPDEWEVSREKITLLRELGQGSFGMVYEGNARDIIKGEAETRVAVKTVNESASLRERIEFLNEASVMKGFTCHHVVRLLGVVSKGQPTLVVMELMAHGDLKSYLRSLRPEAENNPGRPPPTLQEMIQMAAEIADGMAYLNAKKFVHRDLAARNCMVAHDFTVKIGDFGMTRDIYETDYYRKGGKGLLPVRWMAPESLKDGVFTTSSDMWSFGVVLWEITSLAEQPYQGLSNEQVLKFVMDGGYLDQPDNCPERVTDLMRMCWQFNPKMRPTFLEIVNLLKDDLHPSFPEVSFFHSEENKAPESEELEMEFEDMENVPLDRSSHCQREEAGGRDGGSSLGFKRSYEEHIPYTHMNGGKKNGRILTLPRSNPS

C#Cc1cccc(Nc2ncnc3cc(OCCOC)c(OCCOC)cc23)c1 [ERLOTINIB]
Not Active: all assays above

COc1cc2c(N3CCN(C(=O)Nc4ccc(OC(C)C)cc4)CC3)ncnc2cc1OCCCN1CCCCC1 [TANDUTINIB]
Not Active: all assays above

O=c1ncn2nc(Sc3ccc(F)cc3F)ccc2c1-c1c(Cl)cccc1Cl [NEFLAMAPIMOD]
not listed: Ephrin type-A receptor 8
Not Active: all other assays above

C[S+]([O-])c1ccc(-c2nc(-c3ccc(F)cc3)c(-c3ccncc3)[nH]2)cc1 (stereo not drawn) [SB-203580]
Not Active: all assays above

Cc1ccc(NC(=O)c2ccc(CN3CCN(C)CC3)cc2)cc1Nc1nccc(-c2cccnc2)n1 [IMATINIB]
not listed: Ephrin type-A receptor 8
Not Active: all other assays above

CC[C@H](CO)Nc1nc(NCc2ccccc2)c2ncn(C(C)C)c2n1 [SELICICLIB]
not listed: [5]
Not Active: all other assays above

Oc1ccc(-c2nc(-c3ccc(F)cc3)c(-c3ccncc3)[nH]2)cc1 [SB-202190]
Not Active: all assays above

CCOc1cc2ncc(C#N)c(Nc3ccc(F)c(Cl)c3)c2cc1NC(=O)/C=C/CN(C)C [PELITINIB]
Not Active: [2] | [3] | Insulin receptor | [5]

Oc1c2ccccc2c2c3c(cccc13)N=N2 [SP-600125]
Not Active: Ephrin type-A receptor 8 | [4] | Insulin receptor
